In patent US20250073138A1, “Lipid-based nanoparticles for enhancing percutaneous absorption and manufacturing method thereof” (COSMECCA KOREA CO., LTD., priority 2023, published 2025):

Test system: HaCaT, a human keratinocyte cell line
Experiment: Live/dead fluorescence staining cytotoxicity
Format: cell-based
Conditions: treated at different concentrations for 24 h, calcein-AM / ethidium homodimer
Method: First, HaCaT, a human keratinocyte cell line, was treated with tannic acid, TAMA, and TAMA-introduced nanoparticles (TANV) at different concentrations for 24 h. Thereafter, calcein-acetoxymethyl ester (calcein-AM), which stains viable cells, and ethidium homodimer, which stains dead cells, were treated simultaneously, and then washed twice with the PBS buffer solution to obtain images of viable and dead cells through fluorescence microscopy.

Row | Compound | cytotoxicity (live/dead assay)
1 | tannic acid-maleimide [TAMA] | a slight level of cytotoxicity
2 | O=C(OC[C@H]1O[C@@H](OC(=O)c2cc(O)c(O)c(OC(=O)c3cc(O)c(O)c(O)c3)c2)[C@H](OC(=O)c2cc(O)c(O)c(OC(=O)c3cc(O)c(O)c(O)c3)c2)[C@@H](OC(=O)c2cc(O)c(O)c(OC(=O)c3cc(O)c(O)c(O)c3)c2)[C@@H]1OC(=O)c1cc(O)c(O)c(OC(=O)c2cc(O)c(O)c(O)c2)c1)c1cc(O)c(O)c(OC(=O)c2cc(O)c(O)c(O)c2)c1 [tannic acid] | cytotoxicity and death occurred significantly
